Laboratory results from patent US10335409B2 (priority 2012, dated 2019).
pEC50, pKi: −log10 of the molar value. Read-outs that look alike come from different tables or passages of the source.

Columns and labels:
[1] = system: genotype 1b (Con1) wild type transient HCV replicon in Huh-7-derived cells; experiment: Transient-transfected HCV replicon EC50, genotype 1b wild type; type: cell-based, hepatitis C virus; details: 72 h, transient-transfected replicon genotype 1b wild type, read-out: EC50 1B WT
[2] = biological target: HCV NS3 protease domain genotype 3a (Hepatitis C virus genotype 3a, UniProt Q81258); experiment: Ki determination, NS3 protease genotype 3a (fluorogenic depsipeptide substrate); type: biochemical; details: 200 pM enzyme, NS4A peptide
HCV NS3 protease domain genotype 3a, sequence (Q81258 whole entry, looked up, the tested form may be a part): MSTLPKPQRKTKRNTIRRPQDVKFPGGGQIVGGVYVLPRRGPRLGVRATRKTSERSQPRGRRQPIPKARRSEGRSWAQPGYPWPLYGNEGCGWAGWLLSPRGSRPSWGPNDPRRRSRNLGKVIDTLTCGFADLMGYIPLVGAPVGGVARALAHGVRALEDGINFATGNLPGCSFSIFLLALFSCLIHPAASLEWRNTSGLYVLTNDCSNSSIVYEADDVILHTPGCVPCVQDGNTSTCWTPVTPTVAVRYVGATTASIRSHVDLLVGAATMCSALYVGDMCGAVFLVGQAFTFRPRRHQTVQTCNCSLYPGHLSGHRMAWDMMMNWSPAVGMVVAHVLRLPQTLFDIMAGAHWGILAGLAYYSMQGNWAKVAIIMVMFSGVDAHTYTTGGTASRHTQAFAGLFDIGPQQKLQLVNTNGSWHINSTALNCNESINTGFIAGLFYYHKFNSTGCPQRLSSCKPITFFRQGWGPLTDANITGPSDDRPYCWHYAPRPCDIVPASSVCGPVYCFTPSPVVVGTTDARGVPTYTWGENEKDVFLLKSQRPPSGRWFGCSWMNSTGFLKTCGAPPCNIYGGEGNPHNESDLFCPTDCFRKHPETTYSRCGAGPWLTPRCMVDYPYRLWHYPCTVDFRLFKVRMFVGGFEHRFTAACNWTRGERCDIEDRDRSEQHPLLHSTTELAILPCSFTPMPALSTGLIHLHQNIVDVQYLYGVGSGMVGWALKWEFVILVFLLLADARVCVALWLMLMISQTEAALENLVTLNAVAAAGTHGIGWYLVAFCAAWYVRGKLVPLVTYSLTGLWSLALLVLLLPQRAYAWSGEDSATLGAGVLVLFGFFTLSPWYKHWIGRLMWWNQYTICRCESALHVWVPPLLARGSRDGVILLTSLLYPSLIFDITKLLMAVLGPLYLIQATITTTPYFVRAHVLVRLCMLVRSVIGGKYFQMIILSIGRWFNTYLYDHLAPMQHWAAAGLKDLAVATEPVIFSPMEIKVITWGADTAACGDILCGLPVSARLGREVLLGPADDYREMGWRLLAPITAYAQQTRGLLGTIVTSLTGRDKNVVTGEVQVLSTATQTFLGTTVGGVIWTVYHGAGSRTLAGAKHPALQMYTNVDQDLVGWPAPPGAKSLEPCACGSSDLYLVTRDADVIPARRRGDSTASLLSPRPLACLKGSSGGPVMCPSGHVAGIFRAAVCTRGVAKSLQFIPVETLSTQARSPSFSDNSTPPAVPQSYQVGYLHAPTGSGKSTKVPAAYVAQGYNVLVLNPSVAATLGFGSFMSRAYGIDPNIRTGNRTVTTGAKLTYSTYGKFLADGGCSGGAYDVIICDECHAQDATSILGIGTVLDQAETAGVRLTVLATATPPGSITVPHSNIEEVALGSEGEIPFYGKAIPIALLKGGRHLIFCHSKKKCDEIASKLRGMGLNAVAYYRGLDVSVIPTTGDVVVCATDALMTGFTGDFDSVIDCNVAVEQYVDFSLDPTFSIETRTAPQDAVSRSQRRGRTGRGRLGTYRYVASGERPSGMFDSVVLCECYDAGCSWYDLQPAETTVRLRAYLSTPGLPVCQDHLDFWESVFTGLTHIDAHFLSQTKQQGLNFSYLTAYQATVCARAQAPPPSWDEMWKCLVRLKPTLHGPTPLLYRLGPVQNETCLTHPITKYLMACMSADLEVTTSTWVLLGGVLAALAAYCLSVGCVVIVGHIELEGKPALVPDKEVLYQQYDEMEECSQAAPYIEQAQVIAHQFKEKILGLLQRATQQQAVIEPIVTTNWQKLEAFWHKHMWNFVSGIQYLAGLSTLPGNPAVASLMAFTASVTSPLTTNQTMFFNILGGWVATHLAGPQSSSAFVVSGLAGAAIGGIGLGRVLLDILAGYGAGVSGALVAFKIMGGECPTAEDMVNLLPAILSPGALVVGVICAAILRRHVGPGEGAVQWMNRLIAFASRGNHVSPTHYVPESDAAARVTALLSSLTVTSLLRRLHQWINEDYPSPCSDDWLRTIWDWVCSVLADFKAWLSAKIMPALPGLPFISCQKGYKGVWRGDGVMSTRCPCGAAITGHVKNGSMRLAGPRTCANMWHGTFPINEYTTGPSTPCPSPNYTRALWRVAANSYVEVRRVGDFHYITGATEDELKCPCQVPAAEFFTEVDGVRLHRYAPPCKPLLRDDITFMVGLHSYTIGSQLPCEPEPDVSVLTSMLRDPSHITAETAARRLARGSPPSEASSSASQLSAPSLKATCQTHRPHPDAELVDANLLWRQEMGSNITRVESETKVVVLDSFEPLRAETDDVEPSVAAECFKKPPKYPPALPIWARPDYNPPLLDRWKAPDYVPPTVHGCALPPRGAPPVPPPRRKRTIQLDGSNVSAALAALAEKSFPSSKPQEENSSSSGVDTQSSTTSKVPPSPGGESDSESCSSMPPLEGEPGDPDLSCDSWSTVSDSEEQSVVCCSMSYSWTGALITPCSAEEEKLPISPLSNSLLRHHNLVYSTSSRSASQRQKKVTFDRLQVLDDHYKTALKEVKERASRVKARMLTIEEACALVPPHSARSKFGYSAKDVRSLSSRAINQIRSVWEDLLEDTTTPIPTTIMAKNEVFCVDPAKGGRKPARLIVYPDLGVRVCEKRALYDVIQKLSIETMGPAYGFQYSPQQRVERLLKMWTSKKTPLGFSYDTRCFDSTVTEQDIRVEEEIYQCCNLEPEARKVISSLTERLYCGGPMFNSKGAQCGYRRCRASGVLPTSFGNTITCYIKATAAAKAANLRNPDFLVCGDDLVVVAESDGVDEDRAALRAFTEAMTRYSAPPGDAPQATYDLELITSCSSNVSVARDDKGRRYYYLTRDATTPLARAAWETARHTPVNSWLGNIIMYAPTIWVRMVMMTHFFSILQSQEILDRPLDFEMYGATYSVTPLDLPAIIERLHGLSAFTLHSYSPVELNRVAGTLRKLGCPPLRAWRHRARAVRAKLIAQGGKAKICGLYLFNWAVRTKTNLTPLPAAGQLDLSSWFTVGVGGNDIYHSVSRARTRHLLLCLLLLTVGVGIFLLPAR
Method in brief: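 The NS3 protease domain (aa 1-181) with 20 μM NS4A peptide was used at 50 pM with 4 μM substrate (1b) or at 200 pM with 2 μM substrate (3a). Inhibitors (100 nM-5 pM) were pre-incubated 1 h at room temperature in HEPES/glycerol/DTT buffer with 10% DMSO. Steady-state rates (90-120 min) gave Ki via the Morrison equation, corrected for active enzyme and [S]/Km.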

[3] = system: genotype 3a (S52) stable HCV replicon in Huh-7-derived cells; experiment: Stable subgenomic HCV replicon EC50, genotype 3a (Renilla luciferase); type: cell-based, hepatitis C virus; details: 72 h, read-out: EC50 3A RLUC
[4] = system: genotype 4a (ED43) stable HCV replicon in Huh-7-derived cells; experiment: Stable subgenomic HCV replicon EC50, genotype 4a (Renilla luciferase); type: cell-based, hepatitis C virus; details: 72 h, read-out: EC50 4A RLUC
Method in brief: (§1)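 Compounds, three-fold diluted, were applied to Huh-7-derived cells harbouring luciferase replicons (genotype 1a H77, 1b Con1, 2a JFH-1, 4a ED43, with strain-specific adaptive mutations). Seventy-two hours later, intracellular replication was gauged by Renilla luciferase activity and EC50 derived by regression.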

[5] = system: genotype 1a NS3/4a protease inhibitor resistant variant R155K transient HCV replicon in Huh-7-derived cells; experiment: Transient-transfected HCV replicon EC50, genotype 1a R155K; type: cell-based, hepatitis C virus; details: 72 h
[6] = biological target: HCV NS3 protease domain genotype 1b (Hepatitis C virus genotype 1b (isolate Con1), UniProt Q9WMX2, E1202G); experiment: Ki determination, NS3 protease genotype 1b (fluorogenic depsipeptide substrate); type: biochemical; details: 50 pM enzyme, NS4A peptide
HCV NS3 protease domain genotype 1b, sequence (Q9WMX2 1027-1208 E1202G): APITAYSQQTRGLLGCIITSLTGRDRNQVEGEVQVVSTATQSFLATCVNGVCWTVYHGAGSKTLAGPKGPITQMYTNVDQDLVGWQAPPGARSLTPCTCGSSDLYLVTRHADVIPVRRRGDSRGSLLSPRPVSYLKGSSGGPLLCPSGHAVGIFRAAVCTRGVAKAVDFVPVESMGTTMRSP
Protocol: Purified NS3 protease domain (amino acids 1-181) of the genotype 1b and 3a virus were generated as above.
Reactions were run at room temperature in buffer consisting of 50 mM HEPES, 40% glycerol, 0.05% Triton X-100, 10 mM DTT, and 10% DMSO. The final assay solutions contained 50 pM NS3 genotype 1 b protease or 200 pM genotype 3a protease, 20 μM NS4A peptide, and 4 μM substrate (genotype 1b) or 2 μM substrate (genotype 3a). Inhibitor concentrations varied from 100 nM to 5 pM in 3-fold dilutions, and no-inhibitor controls were included.
Compound dilutions were made in DMSO at 20× final concentration. Reaction mixtures were prepared in 96-well assay plates. A solution of enzyme and NS4A peptide in assay buffer (25 μL volume with both reagents at 4× final concentration) was mixed with 45 μL assay buffer and 5 μL of either inhibitor or DMSO, and pre-incubated at room temperature for 1 hour. The reaction was started by addition of 25 μL substrate solution at 4× final concentration. Plates were mixed vigorously for 5-10 seconds and reactions were allowed to proceed for 90 minutes, fluorescence was measured every 30 s between 90 and 120 minutes reaction time using a Tecan InfiniTe M1000 or PerkinElmer Envision multimode plate reader with an excitation wavelength of 340 nm and an emission wavelength of 490 nm.
To determine the Ki, rates were plotted as a function of inhibitor concentration, and the data were fit with equation 1 (Morrison, J. F., Biochimica et Biophysica Acta 1969, 185, 269-286) to calculate Ki^app using GraphPad Prism 5. […] Ki was calculated from Ki^app/(1+[[S]/Km]).

[7] = system: genotype 1b (Con1) stable HCV replicon in Huh-7-derived cells; experiment: Stable subgenomic HCV replicon EC50, genotype 1b (Renilla luciferase); type: cell-based, hepatitis C virus; details: stable replicon genotype 1b, 72 h, read-out: EC50 1B RLUC
Method in brief: as §1

[8] = system: genotype 3a (S52) wild type transient HCV replicon in Huh-7-derived cells; experiment: Transient-transfected HCV replicon EC50, genotype 3a wild type; type: cell-based, hepatitis C virus; details: transient-transfected replicon genotype 3a wild type, 72 h, read-out: EC50 3A WT
[9] = system: genotype 2a (JFH-1) stable HCV replicon in Huh-7-derived cells; experiment: Stable subgenomic HCV replicon EC50, genotype 2a (Renilla luciferase); type: cell-based, hepatitis C virus; details: stable replicon genotype 2a, 72 h, read-out: EC50 2A RLUC
Method in brief: as §1

[10] = system: genotype 1a (H77) wild type transient HCV replicon in Huh-7-derived cells; experiment: Transient-transfected HCV replicon EC50, genotype 1a wild type; type: cell-based, hepatitis C virus; details: 72 h, transient-transfected replicon genotype 1a wild type, read-out: EC50 1A WT
[11] = system: genotype 1a (H77) stable HCV replicon in Huh-7-derived cells; experiment: Stable subgenomic HCV replicon EC50, genotype 1a (Renilla luciferase); type: cell-based, hepatitis C virus; details: stable replicon genotype 1a, 72 h, read-out: EC50 1A RLUC
Method in brief: as §1

[12] = system: genotype 1b NS3/4a protease inhibitor resistant variant D168A transient HCV replicon in Huh-7-derived cells; experiment: Transient-transfected HCV replicon EC50, genotype 1b D168A; type: cell-based, hepatitis C virus; details: 72 h
[13] = Hepatitis C virus, read-out: EC50 1A R155K, transient-transfected replicon genotype 1a R155K resistant variant, 72 h
[14] = Hepatitis C virus, read-out: EC50 1B D168A, transient-transfected replicon genotype 1b D168A resistant variant, 72 h
[15] = stable replicon genotype 3a, Renilla luciferase
[16] = stable replicon genotype 4a, Renilla luciferase
[17] = transient-transfected replicon genotype 1a R155K resistant variant, read-out: EC50 1A R155K

Molecule	pEC50 ([1]; Hepatitis C virus)	pKi [2]	pEC50 ([3]; Hepatitis C virus)	pEC50 ([4]; Hepatitis C virus)	pEC50 [5, 13]	pKi [6]	pEC50 ([7]; Hepatitis C virus)	pEC50 ([9]; Hepatitis C virus)	pEC50 ([10]; Hepatitis C virus)	pEC50 ([11]; Hepatitis C virus)	pEC50 [12, 14]	pEC50 [1]	pEC50 [3, 15]	pEC50 [4, 16]	pEC50 [5, 17]	pEC50 [7]	pEC50 [9]	pEC50 [10]	pEC50 [11]	also measured
COc1ccc2nc3c(nc2c1)O[C@H]1CN(C(=O)[C@H](C(C)(C)C)NC(=O)O[C@@H]2C[C@@H]4C[C@@H]4[C@H]2CCCCC3)[C@H](C(=O)NC2(C(=O)NS(=O)(=O)C3CC3)C[C@H]2C(F)F)[C@@H]1C (stereo in doubt) [Example 33, (1aS,2aR,6S,9S,10S,11R,23aR,23bS)-6-tert-butyl-N-[(1 S,2R)-1-[(cyclopropylsulfonyl)carbamoyl]-2-(difluoromethyl)cyclopropyl]-15-methoxy-10-methyl-4,7-dioxo-1a,2,2a,4,5,6,7,10,11,19,20,21,22,23,23a,23b-hexadecahydro-1H,9H-8,11-methanocyclopropa[4′,5′]cyclopenta[1′,2′:18,19][1,10,3,6]dioxadiazacyclononadecino[11,12-b]quinoxaline-9-carboxamide]	8.80	10.22	7.80	8.64	8.60	10.52	8.55	8.31	8.59	8.12	8.38									pEC50 ([8]; Hepatitis C virus): 8.28
COc1ccc2nc3c(nc2c1)O[C@H]1CN(C(=O)[C@H](C(C)(C)C)NC(=O)O[C@@H]2C[C@H]2CCCCC3)[C@H](C(=O)N[C@]2(C(=O)NS(=O)(=O)C3(C)CC3)C[C@H]2C(F)F)[C@@H]1CC(C)C [Example 30, (1aR,5S,8S,9S,10R,22aR)-5-tert-butyl-N-[(1R,2R)-2-(difluoromethyl)-1-{[(1-methylcyclopropyl)sulfonyl]carbamoyl}cyclopropyl]-14-methoxy-9-(2-methylpropyl)-3,6-dioxo-1,1a,3,4,5,6,9,10,18,19,20,21,22,22a-tetradecahydro-8H-7,10-methanocyclopropa[18,19][1,10,3,6]dioxadiazacyclononadecino[11,12-b]quinoxaline-8-carboxamide]	7.51	9.20	5.61	7.51	6.53	9.85	7.46	7.33	7.39	7.26	6.30									
COc1ccc2nc3c(nc2c1)O[C@H]1CN(C(=O)[C@H](C(C)(C)C)NC(=O)O[C@@H]2C[C@H]2CCCCC3)[C@H](C(=O)N[C@]2(C(=O)NS(=O)(=O)C3(C)CC3)C[C@H]2C(F)F)[C@@H]1C1CC1 [Example 31, (1aR,5S,8S,9S,10R,22aR)-5-tert-butyl-9-cyclopropyl-N-[(1R,2R)-2-(difluoromethyl)-1-{[(1-methylcyclopropyl)sulfonyl]carbamoyl}cyclopropyl]-14-methoxy-3,6-dioxo-1,1a,3,4,5,6,9,10,18,19,20,21,22,22a-tetradecahydro-8H-7,10-methanocyclopropa[18,19][1,10,3,6]dioxadiazacyclononadecino[11,12-b]quinoxaline-8-carboxamide]		8.31				9.89						8.18	5.68	7.70	6.81	7.74	7.20	7.57	7.40	pEC50 ([12]; transient-transfected replicon genotype 1b D168A resistant variant, read-out: EC50 1B D168A): 6.09
COc1ccc2nc3c(nc2c1)O[C@H]1CN(C(=O)[C@H](C2(C)CCCC2)NC(=O)O[C@@H]2C[C@H]2CCCCC3)[C@H](C(=O)N[C@]2(C(=O)NS(=O)(=O)C3(C)CC3)C[C@H]2C(F)F)[C@@H]1C [Example 38, (1aR,5S,8S,9S,10R,22aR)—N-[(1R,2R)-2-(difluoromethyl)-1-{[(1-methylcyclopropyl)sulfonyl]carbamoyl}cyclopropyl]-14-methoxy-9-methyl-5-(1-methylcyclopentyl)-3,6-dioxo-1,1a,3,4,5,6,9,10,18,19,20,21,22,22a-tetradecahydro-8H-7,10-methanocyclopropa[18,19][1,10,3,6]dioxadiazacyclononadecino[11,12-b]quinoxaline-8-carboxamide]	8.55	9.15	6.82	8.26	8.08	10.52	8.38	8.27	8.35	8.11	7.60									
COc1ccc2nc3c(nc2c1)O[C@H]1CN(C(=O)[C@H](C(C)(C)C)NC(=O)O[C@@H]2CCN(C(C)=O)C2CCCCC3)[C@H](C(=O)N[C@]2(C(=O)NS(=O)(=O)C3(C)CC3)C[C@H]2C(F)F)[C@@H]1C (stereo partly drawn) [Example 80, (3aR,7S,10S,11S,12R)-1-acetyl-7-tert-butyl-N-[(1R,2R)-2-(difluoromethyl)-1-{[(1-methylcyclopropyl)sulfonyl]carbamoyl}cyclopropyl]-16-methoxy-11-methyl-5,8-dioxo-1,2,3,3a,5,6,7,8,11,12,20,21,22,23,24,24a-hexadecahydro-10H-9,12-methanopyrrolo[2′,3′:18,19][1,10,3,6]dioxadiazacyclononadecino[11,12-b]quinoxaline-10-carboxamide]	7.28	7.89	4.35	5.93	5.54	9.31	6.46	6.13	6.39	5.95	6.35									
(1aR,5S,8S,9S,10R,22aR)-5-tert-butyl-N-[(1R,2R)-2-(difluoromethyl)-1-{[(1-methylcyclopropyl)sulfonyl]carbamoyl}cyclopropyl]-8-fluoro-14-methoxy-9-methyl-3,6-dioxo-1,1a,3,4,5,6,9,10,18,19,20,21,22,22a-tetradecahydro-8H-7,10-methanocyclopropa[18,19][1,10,3,6]dioxadiazacyclononadecino[1,12-b]quinoxaline-8-carboxamide [Example 47]		9.72				10.15						8.70	7.24	8.38	8.21	8.44	7.92	8.27	8.42	pEC50 [8]: 7.77
